pIC50: −log10 of the molar value.
What was measured:
ανβ3 receptor = biological target: T1, ανβ3 receptor (Homo sapiens, UniProt P05106+P06756); experiment: Binding to the αvβ3 receptor (echistatin SPA); settings: ανβ3 purified from human A375 cells, labelled echistatin, WGA SPA beads; read-out: avb3 IC50
T1 construct: ανβ3 from human A375 cells were purified according to a procedure described by Wong et al; endogenous in cells; host or cells: human A375 cells (receptor purified from the cells, detergent-solubilised)
T1 sequence (P06756 31-889 limits assumed): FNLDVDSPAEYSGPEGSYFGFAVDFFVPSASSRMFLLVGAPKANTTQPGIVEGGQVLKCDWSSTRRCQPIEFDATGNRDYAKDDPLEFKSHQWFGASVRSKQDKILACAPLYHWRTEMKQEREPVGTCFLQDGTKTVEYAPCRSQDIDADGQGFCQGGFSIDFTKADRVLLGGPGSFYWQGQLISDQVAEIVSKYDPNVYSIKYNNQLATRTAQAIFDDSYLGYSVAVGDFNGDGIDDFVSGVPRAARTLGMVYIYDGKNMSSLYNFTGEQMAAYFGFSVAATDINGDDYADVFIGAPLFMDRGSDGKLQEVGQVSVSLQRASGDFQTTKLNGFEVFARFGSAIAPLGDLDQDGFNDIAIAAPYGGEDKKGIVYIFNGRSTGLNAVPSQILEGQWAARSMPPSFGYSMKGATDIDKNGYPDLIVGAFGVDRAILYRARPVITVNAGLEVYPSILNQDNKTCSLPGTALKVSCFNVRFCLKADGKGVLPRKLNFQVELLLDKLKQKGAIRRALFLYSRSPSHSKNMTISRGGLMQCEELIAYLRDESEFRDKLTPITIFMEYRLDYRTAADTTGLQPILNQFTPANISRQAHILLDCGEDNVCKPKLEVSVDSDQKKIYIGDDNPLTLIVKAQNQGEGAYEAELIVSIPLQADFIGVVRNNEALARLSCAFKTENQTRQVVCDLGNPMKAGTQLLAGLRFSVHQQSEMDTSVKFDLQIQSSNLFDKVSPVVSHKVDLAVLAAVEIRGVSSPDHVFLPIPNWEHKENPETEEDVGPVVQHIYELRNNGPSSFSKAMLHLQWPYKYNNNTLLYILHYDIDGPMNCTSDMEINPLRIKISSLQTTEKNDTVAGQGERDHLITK
T1 sequence (P06756 891-1048 partner limits assumed): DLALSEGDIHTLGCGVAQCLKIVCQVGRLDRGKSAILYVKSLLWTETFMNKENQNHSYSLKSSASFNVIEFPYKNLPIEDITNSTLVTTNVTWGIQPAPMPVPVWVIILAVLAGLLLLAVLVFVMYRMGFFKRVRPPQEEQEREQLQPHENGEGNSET
T1 sequence (P05106 27-788): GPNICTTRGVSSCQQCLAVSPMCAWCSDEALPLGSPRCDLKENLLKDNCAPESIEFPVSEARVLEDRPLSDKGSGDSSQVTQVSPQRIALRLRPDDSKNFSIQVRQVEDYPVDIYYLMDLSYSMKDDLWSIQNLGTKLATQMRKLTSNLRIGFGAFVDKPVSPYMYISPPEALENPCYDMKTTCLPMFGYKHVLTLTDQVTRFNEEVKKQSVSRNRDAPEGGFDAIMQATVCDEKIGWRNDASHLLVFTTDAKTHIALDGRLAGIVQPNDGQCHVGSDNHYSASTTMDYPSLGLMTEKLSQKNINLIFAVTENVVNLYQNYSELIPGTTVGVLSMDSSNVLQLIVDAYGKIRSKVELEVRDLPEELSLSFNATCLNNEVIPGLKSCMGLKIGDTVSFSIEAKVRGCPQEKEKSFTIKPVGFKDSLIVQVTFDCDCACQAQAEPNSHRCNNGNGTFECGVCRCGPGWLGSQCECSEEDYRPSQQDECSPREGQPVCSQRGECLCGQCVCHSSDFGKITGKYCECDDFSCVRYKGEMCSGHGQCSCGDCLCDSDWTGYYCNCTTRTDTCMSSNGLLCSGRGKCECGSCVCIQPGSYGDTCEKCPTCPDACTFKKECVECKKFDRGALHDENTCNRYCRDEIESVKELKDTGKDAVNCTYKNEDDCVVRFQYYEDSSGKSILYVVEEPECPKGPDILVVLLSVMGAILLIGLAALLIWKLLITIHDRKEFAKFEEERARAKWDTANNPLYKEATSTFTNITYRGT
Protocol: Biological Investigations a) Binding to the ανβ3 Receptor
10 μl ανβ3 (5 ng) in TBS pH 7.6, 2 mM CaCl2, 1 mM MgCl2, 1% n/octylglucopyranoside; 10 μl of the substance to be tested in TBS pH 7.6, 0.1% dimethylsulfoxide (DMSO), and 45 μl TBS pH 7.6, 2 mM CaCl2, 1 MM MgCl2, 1 mM MnCl2 were each incubated for 1 h at room temperature.

smooth muscle cells = experiment: Smooth muscle cell (SMC) migration test; assay type: cell-based, humans or rats; settings: horizontal migration on vitronectin-coated plates, 24 hours; human or rat cells not specified
Protocol: b) Smooth Muscle Cell (SMC) Migration Test
Smooth muscle cells from humans or rats were used. The migration of the cells was determined in a horizontal measuring arrangement (Falcon).
The horizontal migration was determined in 6-well plates coated with vitronectin (1 μg/cm^2). The cells were suspended in a medium (DMEM:F12/0, 12% BSA-rat smooth muscle cells or MCDB 131 with 0.2% BSA-human smooth muscle cells), inoculated and allowed to grow to confluence. Half of the smooth muscle cell lawn was then scraped off, and the cells were treated with different concentrations of the test compounds. The mixtures were incubated for 24 hours at 37° C. in the presence of 5% CO2 After the incubation, the smooth muscle cell migration was determined by measurement of the migration distance and the cell density of the migrated cells.

αvβ3 receptor = settings: WO 98/00395, second value; cited from earlier work

| melting point | SMILES | other results |
| --- | --- | --- |
|  | CC1(C)[C@@H]2CC[C@@]1(CS(=O)(=O)N[C@@H](Cc1ccc(-c3cccc(NC(=O)Nc4cccnc4)c3)cc1)C(=O)O)C(=O)C2 [Example 1.73, (2S)-3-[3′-(3-Pyridin-3-yl-ureido)-biphenyl-4-yl]-2-[(S)-campher-10-yl-sulfonylamino]-propanoic acid] | pIC50 (ανβ3 receptor): 8.70; pIC50 (smooth muscle cells): 7.40 to 8.52 |
|  | CC1(C)C2CCC1(CS(=O)(=O)NC(Cc1ccc(OCCCC(=O)NC(=N)N)cc1)C(=O)O)C(=O)C2 (stereo not shown) [(I)] | pIC50 (αvβ3 receptor): 9.80 |
| 169 °C | Cc1cc(C)c(S(=O)(=O)N[C@@H](Cc2ccc(-c3cccc(N/C(=N/C#N)NCc4ccccc4)c3)cc2)C(=O)O)c(C)c1 [Example 10.8] |  |
| 138 °C | COc1ccc(-c2cccc(CNc3ccccn3)c2)cc1S(=O)(=O)NC(CC(=O)O)c1ccccc1 (stereo not shown) [Example 18.3] |  |
| 130 °C (dec.) | O=C(O)CC(NS(=O)(=O)c1cccc(-c2cccc(Nc3nccs3)c2)c1)c1ccccc1 (stereo not shown) [Example 15.1.2, 3-phenyl-3-{[3′-(1,3-thiazol-2-ylamino)[1,1′-biphenyl]-3-yl]sulfonylamino}-propanoic acid] |  |
| 152 °C | CCCCNC(=O)Nc1cccc(-c2cccc(S(=O)(=O)N[C@H](CC(=O)O)c3ccccc3)c2)c1 [Example 4.94] |  |
| > 240 °C | COc1ccc(-c2cccc(Nc3ncccc3N)c2)cc1S(=O)(=O)NC(CC(=O)O)c1ccccc1 (stereo not shown) [Example 20.4] |  |
| 215 °C | COc1ccc2[nH]/c(=N\C(=O)Nc3cccc(-c4ccc(C[C@H](NS(=O)(=O)c5c(C)cc(C)cc5C)C(=O)O)cc4)c3)[nH]c2c1 [Example 1.188] |  |
| 126 °C | Cc1cc(C)c(S(=O)(=O)N[C@@H](Cc2ccc(-c3cccc(NC(=O)NCC(F)(F)C(F)(F)F)c3)cc2)C(=O)O)c(C)c1 [Example 1.211] |  |
| 136 °C | CCCNC(=O)Nc1cccc(-c2cccc(CC(NS(=O)(=O)c3c(C)cc(C)cc3C)C(=O)O)c2)c1 (stereo not shown) [Example 1.192] |  |
| 207 °C | CC1(C)C2CC[C@@]1(CS(=O)(=O)N[C@@H](Cc1ccc(-c3cccc(Nc4ncccc4[N+](=O)[O-])c3)cc1)C(=O)O)C(=O)C2 [Example 20.3] |  |
| 126 °C | COc1ccc(-c2ccc(NC(=O)NCC(C)C)cc2)cc1S(=O)(=O)NC(CC(=O)O)c1ccccc1 (stereo not shown) [Example 4.72] |  |
| 144 °C | O=C(O)CC(NS(=O)(=O)c1cccc(-c2cccc(NC(=O)NC3CC3)c2)c1)c1cccnc1 (stereo not shown) [Example 4.39] |  |
| 218 °C | C[C@H](NS(=O)(=O)c1cccc(-c2cccc(NC(=O)N=c3[nH]c4ccccc4[nH]3)c2)c1)C(=O)O [Example 4.80] |  |
| 172 °C | O=C(O)CNS(=O)(=O)c1cccc(-c2cccc(NC(=O)Nc3nc4ccccc4[nH]3)c2)c1 [Example 4.38] |  |
| 198 °C | Cc1cc(C)c(S(=O)(=O)N[C@@H](Cc2ccc(-c3cccc(NC(=O)Nc4nc5ccccc5s4)c3)cc2)C(=O)O)c(C)c1 [Example 1.197] |  |
| 289 °C | Cc1cc(C)c(S(=O)(=O)N[C@@H](Cc2ccc(-c3cccc(N)c3)cc2)C(=O)O)c(C)c1 [Example 1.205] |  |
| 161 °C | COc1ccc(-c2ccc(NC(=O)NCc3cccnc3)cc2)cc1S(=O)(=O)NC(CC(=O)O)c1ccccc1 (stereo not shown) [Example 4.67] |  |
| 222 °C | CC1(C)C2CC[C@@]1(CS(=O)(=O)N[C@@H](Cc1ccc(-c3ccc(NC(=O)N=c4[nH]c5ccccc5[nH]4)cc3)cc1)C(=O)O)C(=O)C2 [Example 1.215] |  |
| 207 °C | Cc1cc(C)c(S(=O)(=O)N[C@@H](Cc2ccc(-c3cccc(NC(=O)N=c4[nH]c5ccccc5[nH]4)c3)cc2)C(=O)O)c(C)c1 [Example 1.210] |  |
| > 240 °C | COc1ccc(-c2cccc(NC(=O)NCC(F)(F)F)c2)cc1S(=O)(=O)NC(CC(=O)O)c1ccccc1 (stereo not shown) [Example 4.100] |  |

| melting point | SMILES | other results |
| --- | --- | --- |
| 150 °C (dec.) | C=CCN/C(=C\[N+](=O)[O-])Nc1cccc(-c2ccc(C[C@H](NS(=O)(=O)CC34CC[C@@H](CC3=O)C4(C)C)C(=O)O)cc2)c1 [Example 12.5] |  |
| 124 °C | Cc1cc(C)c(S(=O)(=O)N[C@@H](Cc2ccc(-c3cccc(NC(=O)NCC(F)(F)F)c3)cc2)C(=O)O)c(C)c1 [Example 1.206] |  |
| 174 °C (dec.) | Cc1cc(C)c(S(=O)(=O)N[C@@H](Cc2ccc(-c3cccc(N/C(=N/C#N)NCc4ccccn4)c3)cc2)C(=O)O)c(C)c1 [Example 10.9] |  |
| 128 °C | COc1ccc(-c2cccc(NC(=O)NC3CC3)c2)cc1S(=O)(=O)NCC(=O)O [Example 4.77] |  |
| 120 °C | N#C/N=C(/Nc1cccc(-c2cccc(S(=O)(=O)NC(CC(=O)O)c3ccccc3)c2)c1)NC1CC1 (stereo not shown) [Example 10.3.5, 3-[(3′-{[(cyclopropylamino)(cyanoimino)methyl]amino}[1,1′-biphenyl]-3-yl)sulfonylamino]-3-phenyl-propanoic acid] |  |
| > 240 °C | O=C(O)[C@H](Cc1ccc(-c2cccc(CNc3ccccn3)c2)cc1)NS(=O)(=O)c1cccs1 [Example 18.9] |  |
| 212 °C | Cc1cc(C)c(S(=O)(=O)N[C@@H](Cc2ccc(-c3cccc(NC(=O)Nc4nccs4)c3)cc2)C(=O)O)c(C)c1 [Example 1.198] |  |
| 202 °C | CC1(C)C2CC[C@@]1(CS(=O)(=O)N[C@@H](Cc1ccc(-c3ccc(NC(=O)NCc4ccccn4)cc3)cc1)C(=O)O)C(=O)C2 [Example 1.213] |  |
| 214 °C (dec.) | Cc1cc(C)c(S(=O)(=O)N[C@@H](Cc2ccc(-c3cccc(Nc4c(NCc5ccccn5)c(=O)c4=O)c3)cc2)C(=O)O)c(C)c1 [Example 13.3] |  |
| 162 °C | COc1ccc(-c2cccc(NC(=O)NCc3ccc(F)cc3)c2)cc1S(=O)(=O)N[C@@H](CC(=O)O)c1ccccc1 [Example 4.97] |  |
| 193 °C | Cc1cc(C)c(S(=O)(=O)NC(Cc2cccc(-c3ccc(NC(=O)N=c4[nH]c5ccccc5[nH]4)cc3)c2)C(=O)O)c(C)c1 (stereo not shown) [Example 1.202] |  |
| 149 °C | Cc1cc(C)c(S(=O)(=O)N[C@@H](Cc2ccc(-c3cccc(N/C(=C/[N+](=O)[O-])NC4CC4)c3)cc2)C(=O)O)c(C)c1 [Example 12.1.5, (2S)-3-(3′-{[(E)-1-(cyclopropylamino)-2-nitroethenyl]amino}[1,1′-biphenyl]-4-yl)-2-[(mesitylsulfonyl)amino]-propanoic acid] |  |
| 145 °C | COc1ccc(-c2ccc(NC(=O)NCc3ccncc3)cc2)cc1S(=O)(=O)NC(CC(=O)O)c1ccccc1 (stereo not shown) [Example 4.66] |  |
| 225 °C | COc1ccc2nc(NC(=O)Nc3cccc(-c4ccc(C[C@H](NS(=O)(=O)c5c(C)cc(C)cc5C)C(=O)O)cc4)c3)sc2c1 [Example 1.200] |  |
| 207 °C | CC1(C)C2CC[C@@]1(CS(=O)(=O)N[C@@H](Cc1ccc(-c3ccc(NC(=O)Nc4ccncc4)cc3)cc1)C(=O)O)C(=O)C2 [Example 1.214] |  |
| 220 °C | Cc1cc(C)c(S(=O)(=O)N[C@@H](Cc2ccc(-c3cccc(NC(=O)Nc4nc5cc(Cl)ccc5o4)c3)cc2)C(=O)O)c(C)c1 [Example 1.195] |  |
| 186 °C | O=C(O)C[C@@H](NS(=O)(=O)c1cccc(-c2cccc(NC(=O)NCc3ccc(C(F)(F)F)cc3)c2)c1)c1ccccc1 [Example 4.95] |  |
| 164 °C | Cc1cc(C)c(S(=O)(=O)N[C@@H](Cc2ccc(-c3cccc(Nc4c(NC5CC5)c(=O)c4=O)c3)cc2)C(=O)O)c(C)c1 [Example 13.1.3, (2S)-3-(3′-{[2-(cyclopropylamino)-3,4-dioxo-1-cyclobuten-1-yl]-amino}[1,1′-biphenyl]-4-yl)-2-[(mesitylsulfonyl)amino]-propanoic acid] |  |
| 142 °C | CN(CC(=O)O)S(=O)(=O)c1cccc(-c2cccc(NC(=O)Nc3ccncc3)c2)c1 [Example 6.14] |  |
| 149 °C | C[C@@H](NS(=O)(=O)c1cccc(-c2cccc(NC(=O)NCc3ccccn3)c2)c1)C(=O)O [Example 4.82] |  |
| > 240 °C | CCS(=O)(=O)N[C@@H](Cc1ccc(-c2cccc(CNc3ccccn3)c2)cc1)C(=O)O [Example 18.7] |  |

Reference: patent US7094911B2, “Biphenyl and biphenyl-analogous compounds as integrin antagonists” (Bayer Aktiengesellschaft, priority 1998, dated 2006)
